{"source": "patent US10420768B2", "about": "“Pyrrolopyrimidine derivatives as NR2B NMDA receptor antagonists” (Rugen Holdings (Cayman) Limited, priority 2014, dated 2019)", "key": {"rats [1]": {"tested_on": "rats", "test": "Haloperidol-induced catalepsy (HIC) model", "format": "in vivo, rat", "conditions": "positive control 8 mg/kg"}, "rats [2]": {"tested_on": "rats", "test": "Electroconvulsive threshold (ECT) test", "format": "in vivo, rat"}, "mice (strain NLMN)": {"tested_on": "mice (strain NLMN)", "test": "Forced swim test", "format": "in vivo, mouse", "conditions": "positive control 32 mg/kg IP"}}, "data": [{"smiles": "CC(N)Cc1ccccc1", "note": "(stereo not shown) [amphetamine]", "values": [{"measurement": "anticataleptic activity (catalepsy score)", "setting": "rats [1]", "result": "showed the expected robust anticataleptic activity"}]}, {"smiles": "CN1C(=O)CN=C(c2ccccc2)c2cc(Cl)ccc21", "note": "[diazepam]", "values": [{"measurement": "anticonvulsant activity (electroconvulsive threshold)", "setting": "rats [2]; positive control 16 mg/kg p.o.", "result": "showed the expected pro- and anticonvulsant activities"}]}, {"smiles": "CN(C)CCCN1c2ccccc2CCc2ccccc21", "note": "[imipramine]", "values": [{"measurement": "antidepressant activity (immobility time)", "setting": "mice (strain NLMN)", "result": "showed the expected antidepressant activity"}]}, {"smiles": "Cn1c(=O)c2[nH]cnc2n(C)c1=O", "note": "[theophylline, Theophylline]", "values": [{"measurement": "proconvulsant activity (electroconvulsive threshold)", "setting": "rats [2]; positive control 128 mg/kg p.o.", "result": "showed the expected pro- and anticonvulsant activities"}]}]}
